From patent publication US20160024083A1, “COMPOUNDS AND METHODS FOR TREATING CANCERS” (HEALTH RESEARCH, INC., priority 2013, published 2016)

What was measured:
[1] = Aqueous solubility (pH 7.4); assay type: physicochemical
[2] = Metabolic stability in the presence of mouse liver microsomes; assay type: in vitro ADME; conditions: for metabolic stability, % left: after 30 minute incubation with mouse liver microsome
CWR22R = assay: cells; assay type: cell-based; conditions: for IC50: Homo sapiens, 22Rv1, CWR22R, read-out: IC50 for inhibition of growth
Experimental: FIG. 21. Toxicity of PLA1055 to CWR22R cells in vitro depending on time of incubation. PLA1055 was added to CWR22R in full range of concentrations for the periods of time shown on the right. After that drug containing media were changed for drug free and survival of cells was detected at 72 hours after start of treatment using Alamar Blue assay (Promega).
(§1) This example provides a table (below) of the compounds of the present disclosure and their activity towards four different cell lines (i.e., CWR22R, HeLa, PC3, and MDA-MB-231). The IC50 for inhibition of growth is divided into 4 categories: A<1 μM, B 1-5 μM, C 5-20 μM, D>20 μM.
(§2) All compounds were tested for toxicity using 4 cells lines, target cells—CWR22R and non-target cells, Hela, PC3 and MDA-MB-231 (FIGS. 1A-F).
(§3) LC50 data of in vitro 72 hours cytotoxicity assay are included in this table for comparison.
An in vitro experiment was run to detect the concentration of PLA1055 needed to kill all tumor cells in vitro (LC90) during different periods of time (30 minutes-72 hours, FIG. 21)).

Hela = assay: Inhibition of growth / toxicity in non-target Hela cells; assay type: cell-based; conditions: Homo sapiens, HeLa
Experimental: as §1, §2

PC3 = assay: Inhibition of growth / toxicity in non-target PC3 cells; assay type: cell-based; conditions: Homo sapiens, PC-3
Experimental: as §1, §2

MDA-MB-231 = assay: Inhibition of growth / toxicity in non-target MDA-MB-231 cells; assay type: cell-based; conditions: Homo sapiens
Experimental: as §1, §2

[3] = Plasma concentration (PK) after intravenous and intraperitoneal injections; assay type: in vivo
[4] = Tissue drug concentrations (tumor, liver, plasma) in treated CWR22R tumor-bearing mice; assay type: in vivo
Experimental: (§4) We tested these compounds in an in vivo efficacy experiment using model of CRPC in SCID mice, CWR22R. Two compounds, PLA1079 and 1125, which were synthesized in the amount of 500 mg were tested in full scale experiment with either 5 IV daily injections or 10 IP daily injections. After 5 IP or IV injections intra-tumor concentration of the compounds were measured in few mice from this experiment.
Two other compounds, PLA1148 and 1098 (PK testing in FIGS. 8 and 9) were tested in a small scale efficacy experiment. Upon PK testing of the compound PLA1148 one mouse was injected twice with 10 min interval. However the concentration of the drug in plasma of this mouse was not twice, but >4 times higher than in mice injected once. […] It was decided to utilize this observation in an attempt to get higher plasma and tumor concentration of both compounds. Therefore in the pilot efficacy experiment in the same model of CWR22R cells mice were treated with 2 IP injections with 10 minute interval. Treatment with PLA1098 was carried out for two days. […] However this is so far the highest concentration found in tumor. […]
as §3

CWR22R tumors = assay: In vivo efficacy, subcutaneous xenografts of CWR22R cells in SCID mice; conditions: CWR22R in SCID mice; 5 IV daily injections or 10 IP daily injections
Experimental: as §4
Two other compounds, PLA1148 and 1098 (PK testing in FIGS. 8 and 9) were tested in a small scale efficacy experiment. Upon PK testing of the compound PLA1148 one mouse was injected twice with 10 min interval. However the concentration of the drug in plasma of this mouse was not twice, but >4 times higher than in mice injected once. […] It was decided to utilize this observation in an attempt to get higher plasma and tumor concentration of both compounds. Therefore in the pilot efficacy experiment in the same model of CWR22R cells mice were treated with 2 IP injections with 10 minute interval. Treatment with PLA1098 was carried out for two days. […] However this is so far the highest concentration found in tumor.
Pilot efficacy experiments were run for compounds: PLA1163, PLA1148 using the same model of subcutaneous xenografts of CWR22R cells in SCID mice (FIGS. 18 and 19).

[5] = classification (Stable/Moderate/Unstable), lines whose second value is in %
[6] = in %, table title: Metabolic stability and solubility, % left after 30 minute incubation with mouse liver microsome
[7] = single IV administration of 50 mg/kg (FIG. 20)

Row | Compound | Aqueous Solubility (pH 7.4) ([1]; pH 7.4) [μM] | Aqueous Solubility Classification ([1]; pH 7.4) | Metabolic stability, % left after 30 min with mouse liver microsomes [2, 6] [%] | IC50 (CWR22R) [µM] | IC50 (Hela) [µM] | IC50 (PC3) [µM] | IC50 (MDA-MB-231) [µM] | also measured
1 | O=c1[nH]c2ccc3c(c4ccccc4n3CCCF)c2o1 [PLA1190] | 3.5 | Low | 77 | – | – | – | – | metabolic stability, % left [2]: 70%; Metabolic stability, % left after 30 min with mouse liver microsomes [2, 5]: Stable
2 | N#Cc1cccc2c1c1c3cc[nH]c(=O)c3ccc1n2CCCF [PLA1195] | 2.7 | Low | 63 | – | – | – | – | Metabolic stability, % left after 30 min with mouse liver microsomes [2, 5]: Moderate
3 | O=C1CCc2c1ccc1c2c2c(F)cccc2n1CCCF [PLA1197] | 4.0 | Low | 73 | – | – | – | – | metabolic stability, % left [2]: 77%; Metabolic stability, % left after 30 min with mouse liver microsomes [2, 5]: Stable
4 | O=c1c2ccc3c(c2ccn1CCO)c1ccccc1n3CCCF [PLA1192] | 15 | Moderate | 27 | – | – | – | – | Aqueous Solubility Classification [2, 5]: Moderate
5 | CN1Cc2c(ccc3c2c2ccccc2n3CCC(F)F)C1=O [PLA1194] | 18 | Moderate | 28 | – | – | – | – | Aqueous Solubility Classification [2, 5]: Moderate
6 | O=c1c2ccc3c(c2ccn1CCN1CCCC1)c1ccccc1n3CCCF [PLA1193] | 140 | High | 3 | – | – | – | – | Metabolic stability, % left after 30 min with mouse liver microsomes [2, 5]: Unstable
7 | NC(=O)c1cccc2c1c1c3cc[nH]c(=O)c3ccc1n2CCCF [PLA1196] | 26 | Moderate | 65 | – | – | – | – | Aqueous Solubility Classification [2, 5]: Moderate
8 | O=c1[nH]ccc2c1ccc1c2c2ncccc2n1CCCF [PLA1181] | – | Low | – | – | – | – | – | Aqueous Solubility Classification [1]: Low
9 | FCCCn1c2ccccc2c2cc(-c3cnco3)ccc21 [Compound 11-1, 9-(3-Fluoropropyl)-3-oxazol-5-yl-9H-carbazole] | – | – | – | < 1 | > 20 | > 20 | > 20 | –
10 | CC(=O)c1ccc2c(c1)c1c3c(ccc1n2CCCF)C(=O)CC3 [PLA1198] | 2.5 | Low | 46 | – | – | – | – | Metabolic stability, % left after 30 min with mouse liver microsomes [2, 5]: Moderate
11 | CC(=O)c1ccc2c(c1)c1ccccc1n2CCCF [PLA1055] | – | – | – | – | – | – | – | CC50 (CWR22R): 0.04 µM; LC90 (CWR22R; CWR22R, incubation 4-8 hours, survival at 72 hours, Alamar Blue assay): 2.5 µM; plasma concentration at 8 hours [3, 7]: below 1 uM; time up to which compound was detected in plasma [3, 7]: up to 24 hours
12 | CCCn1c2ccc(C(C)=O)cc2c2c(O)cccc21 [Compound 27-1, 1-(5-Hydroxy-9-propyl-9H-carbazol-3-yl)-ethanone] | – | – | – | > 20 | > 20 | > 20 | > 20 | –
13 | CCCn1c2ccccc2c2cc(C#N)ccc21 [Compound 22-2] | – | – | – | < 1 | > 20 | > 20 | > 20 | –
14 | O=C1CCc2c1ccc1c2c2cc(Br)ccc2n1CCCF [PLA1199] | 2.3 | Low | 42 | – | – | – | – | Metabolic stability, % left after 30 min with mouse liver microsomes [2, 5]: Moderate
15 | CCCn1c2ccc(C(C)=O)cc2c2ccc(F)cc21 [Compound 5-2] | – | – | – | 5 to 20 | > 20 | > 20 | > 20 | –
16 | CNC(=O)c1cccc2c1c1cc(C(C)=O)ccc1n2CCCF [Compound 6-4] | – | – | – | 5 to 20 | > 20 | > 20 | > 20 | –
17 | O=C1COc2c(ccc3c2c2ncccc2n3CCCF)N1 [PLA1183] | – | Low | – | – | – | – | – | Aqueous Solubility Classification [1]: Moderate
18 | CC(=O)c1ccc2c(c1)c1c(C(N)=O)cccc1n2CCCF [PLA1191] | 130 | High | 30 | – | – | – | – | Metabolic stability, % left after 30 min with mouse liver microsomes [2, 5]: Moderate
19 | N#Cc1ccc2c(c1)c1ccccc1n2CCCF [Compound 26-1, 9-(3-Fluoropropyl)-9H-carbazole-3-carbonitrile] | – | – | – | < 1 | > 20 | > 20 | > 20 | –
20 | CCCn1c2ccccc2c2cc(-c3nncs3)ccc21 [Compound 8-3] | – | – | – | > 20 | > 20 | > 20 | > 20 | –
21 | NC(=O)c1cnc2c(c1)c1ccccc1n2CCCF [Compound 7-1, 9-(3-Fluoropropyl)-9H-pyrido[2,3-b]indole-3-carboxamide] | – | – | – | 1 to 5 | > 20 | > 20 | > 20 | –
22 | FCCCn1c2ccccc2c2cc(-c3nnco3)ccc21 [PLA1125] | – | – | – | – | – | – | – | CC50 (CWR22R): 0.1 µM; plasma concentration time course ([3]; after IV and IP injections, 50-100 mg/kg): fast reduction of concentration during the first hour; bioavailability through IP injection ([3]; plasma concentrations similar or even higher after IP than IV, 50-100 mg/kg): very high; Tumor concentration ([4]; 100 mg/kg, IP/IV): 7 to 10 nM; intra-tumor concentration relative to LC50% in vitro ([4]; mouse, in vivo): significantly below LC50%; in vivo efficacy (CWR22R tumors): absence of in vivo efficacy
23 | CC(=O)c1ccc2c(c1)c1ccccc1n2CCC(F)F [Compound 18-2, 1-[9-(3,3-Difluoropropyl)-9H-carbazol-3-yl]-ethanone] | – | – | – | < 1 | > 20 | > 20 | > 20 | –
24 | N#Cc1ccc2c(c1)c1c(C(N)=O)cccc1n2CCCF [Compound 19-2] | – | – | – | < 1 | > 20 | > 20 | > 20 | –
25 | CCCn1c2ccc(C(C)=O)cc2c2c(F)cccc21 [Compound 5-1, 1-(5-Fluoro-9-propyl-9H-carbazol-3-yl)-ethanone] | – | – | – | < 1 | > 20 | > 20 | > 20 | –
